Data from ChEMBL document CHEMBL1671627, “Increasing trends in antimicrobial resistance among clinically important anaerobes and Bacteroides fragilis isolates causing nosocomial infections: emerging resistance to carbapenems” (2008).
≈ marks a conversion by molar mass, not a printed value.

Tests used:
Fusobacterium nucleatum [1] = assay: Antibacterial activity against Fusobacterium nucleatum assessed as susceptible isolates by CLSI agar dilution method; type: functional
[2] = test system: Peptostreptococcus anaerobius; assay: Antibacterial activity against beta-lactamase producing Peptostreptococcus anaerobius assessed as susceptible isolates by CLSI agar dilution method; type: functional
[3] = test system: Fusobacterium necrophorum; assay: Antibacterial activity against Fusobacterium necrophorum assessed as susceptible isolates by CLSI agar dilution method; type: functional
Fusobacterium nucleatum [4] = assay: Antibacterial activity against Fusobacterium nucleatum by CLSI agar dilution method; type: functional
[5] = test system: Peptoniphilus asaccharolyticus; assay: Antibacterial activity against beta-lactamase producing Peptoniphilus asaccharolyticus by CLSI agar dilution method; type: functional
Clostridium tertium [6] = assay: Antibacterial activity against beta-lactamase producing Clostridium tertium by CLSI agar dilution method; type: functional
Clostridium tertium [7] = assay: Antibacterial activity against beta-lactamase producing Clostridium tertium assessed as susceptible isolates by CLSI agar dilution method; type: functional
[8] = test system: Prevotella melaninogenica; assay: Antibacterial activity against Prevotella melaninogenica assessed as susceptible isolates by CLSI agar dilution method; type: functional
Prevotella buccae [9] = assay: Antibacterial activity against Prevotella buccae assessed as resistant isolates by CLSI agar dilution method; type: functional, Segatella buccae
Clostridium septicum [10] = assay: Antibacterial activity against beta-lactamase producing Clostridium septicum by CLSI agar dilution method; type: functional
Prevotella intermedia [11] = assay: Antibacterial activity against Prevotella intermedia assessed as susceptible isolates by CLSI agar dilution method; type: functional
Prevotella buccae [12] = assay: Antibacterial activity against Prevotella buccae by CLSI agar dilution method; type: functional; conditions: Segatella buccae
Parvimonas micra [13] = assay: Antibacterial activity against beta-lactamase producing Micromonas micros assessed as susceptible isolates by CLSI agar dilution method; type: functional
[14] = test system: Peptostreptococcus anaerobius; assay: Antibacterial activity against beta-lactamase producing Peptostreptococcus anaerobius assessed as resistant isolates by CLSI agar dilution method; type: functional
Finegoldia magna [15] = assay: Antibacterial activity against beta-lactamase producing Finegoldia magna by CLSI agar dilution method; type: functional
Phocaeicola vulgatus [16] = assay: Antibacterial activity against beta-lactamase producing Bacteroides vulgatus assessed as susceptible isolates by CLSI agar dilution method; type: functional
Prevotella intermedia [17] = assay: Antibacterial activity against Prevotella intermedia by CLSI agar dilution method; type: functional
Fusobacterium mortiferum [18] = assay: Antibacterial activity against Fusobacterium mortiferum assessed as resistant isolates by CLSI agar dilution method; type: functional
[19] = test system: Prevotella melaninogenica; assay: Antibacterial activity against Prevotella melaninogenica assessed as resistant isolates by CLSI agar dilution method; type: functional
[20] = test system: Bacteroides thetaiotaomicron; assay: Antibacterial activity against beta-lactamase producing Bacteroides thetaiotaomicron assessed as resistant isolates by CLSI agar dilution method; type: functional
Prevotella bivia [21] = assay: Antibacterial activity against Prevotella bivia by CLSI agar dilution method; type: functional
Bacteroides uniformis [22] = assay: Antibacterial activity against beta-lactamase producing Bacteroides uniformis assessed as resistant isolates by CLSI agar dilution method; type: functional
Fusobacterium varium [23] = assay: Antibacterial activity against Fusobacterium varium by CLSI agar dilution method; type: functional
Fusobacterium varium [24] = assay: Antibacterial activity against Fusobacterium varium assessed as resistant isolates by CLSI agar dilution method; type: functional
Parvimonas micra [25] = assay: Antibacterial activity against beta-lactamase producing Micromonas micros assessed as resistant isolates by CLSI agar dilution method; type: functional
Bacteroides fragilis [26] = assay: Antibacterial activity against Bacteroides fragilis by CLSI agar dilution method; type: functional
Phocaeicola vulgatus [27] = assay: Antibacterial activity against beta-lactamase producing Bacteroides vulgatus assessed as resistant isolates by CLSI agar dilution method; type: functional
Clostridium tertium [28] = assay: Antibacterial activity against beta-lactamase producing Clostridium tertium assessed as resistant isolates by CLSI agar dilution method; type: functional
Fusobacterium mortiferum [29] = assay: Antibacterial activity against Fusobacterium mortiferum by CLSI agar dilution method; type: functional
Bacteroides fragilis [30] = assay: Antibacterial activity against Bacteroides fragilis assessed as resistant isolates by CLSI agar dilution method; type: functional
Bacteroides caccae [31] = assay: Antibacterial activity against beta-lactamase producing Bacteroides caccae by CLSI agar dilution method; type: functional
Finegoldia magna [32] = assay: Antibacterial activity against beta-lactamase producing Finegoldia magna assessed as susceptible isolates by CLSI agar dilution method; type: functional
[33] = test system: Peptoniphilus asaccharolyticus; assay: Antibacterial activity against beta-lactamase producing Peptoniphilus asaccharolyticus assessed as resistant isolates by CLSI agar dilution method; type: functional
Veillonella parvula = assay: Antibacterial activity against Veillonella parvula by CLSI agar dilution method; type: functional
Clostridium septicum [34] = assay: Antibacterial activity against beta-lactamase producing Clostridium septicum assessed as susceptible isolates by CLSI agar dilution method; type: functional
[35] = test system: Fusobacterium necrophorum; assay: Antibacterial activity against Fusobacterium necrophorum assessed as resistant isolates by CLSI agar dilution method; type: functional
Bacteroides caccae [36] = assay: Antibacterial activity against beta-lactamase producing Bacteroides caccae assessed as susceptible isolates by CLSI agar dilution method; type: functional
Clostridium perfringens = assay: microbe, parasite or virus in culture; type: functional
Phocaeicola vulgatus [37] = assay: Antibacterial activity against beta-lactamase producing Bacteroides vulgatus by CLSI agar dilution method; type: functional
[38] = test system: Bacteroides thetaiotaomicron; assay: Antibacterial activity against beta-lactamase producing Bacteroides thetaiotaomicron assessed as susceptible isolates by CLSI agar dilution method; type: functional
[39] = test system: Prevotella melaninogenica; assay: Antibacterial activity against Prevotella melaninogenica by CLSI agar dilution method; type: functional
[40] = test system: Fusobacterium necrophorum; assay: Antibacterial activity against Fusobacterium necrophorum by CLSI agar dilution method; type: functional
Finegoldia magna [41] = assay: Antibacterial activity against beta-lactamase producing Finegoldia magna assessed as resistant isolates by CLSI agar dilution method; type: functional
Prevotella buccae [42] = assay: Antibacterial activity against Prevotella buccae assessed as susceptible isolates by CLSI agar dilution method; type: functional, Segatella buccae
Fusobacterium varium [43] = assay: Antibacterial activity against Fusobacterium varium assessed as susceptible isolates by CLSI agar dilution method; type: functional
Bacteroides uniformis [44] = assay: Antibacterial activity against beta-lactamase producing Bacteroides uniformis by CLSI agar dilution method; type: functional
Fusobacterium mortiferum [45] = assay: Antibacterial activity against Fusobacterium mortiferum assessed as susceptible isolates by CLSI agar dilution method; type: functional
[46] = test system: Clostridium paraputrificum; assay: Antibacterial activity against beta-lactamase producing Clostridium paraputrificum by CLSI agar dilution method; type: functional
[47] = test system: Peptostreptococcus anaerobius; assay: Antibacterial activity against beta-lactamase producing Peptostreptococcus anaerobius by CLSI agar dilution method; type: functional
Bacteroides caccae [48] = assay: Antibacterial activity against beta-lactamase producing Bacteroides caccae assessed as resistant isolates by CLSI agar dilution method; type: functional
Prevotella intermedia [49] = assay: Antibacterial activity against Prevotella intermedia assessed as resistant isolates by CLSI agar dilution method; type: functional
Prevotella bivia [50] = assay: Antibacterial activity against Prevotella bivia assessed as susceptible isolates by CLSI agar dilution method; type: functional
[51] = test system: Bacteroides thetaiotaomicron; assay: Antibacterial activity against beta-lactamase producing Bacteroides thetaiotaomicron by CLSI agar dilution method; type: functional
[52] = test system: Peptoniphilus asaccharolyticus; assay: Antibacterial activity against beta-lactamase producing Peptoniphilus asaccharolyticus assessed as susceptible isolates by CLSI agar dilution method; type: functional
Bacteroides fragilis [53] = assay: Antibacterial activity against Bacteroides fragilis assessed as susceptible isolates by CLSI agar dilution method; type: functional
Fusobacterium nucleatum [54] = assay: Antibacterial activity against Fusobacterium nucleatum assessed as resistant isolates by CLSI agar dilution method; type: functional
Prevotella bivia [55] = assay: Antibacterial activity against Prevotella bivia assessed as resistant isolates by CLSI agar dilution method; type: functional
Parvimonas micra [56] = assay: Antibacterial activity against beta-lactamase producing Micromonas micros by CLSI agar dilution method; type: functional
Bacteroides uniformis [57] = assay: Antibacterial activity against beta-lactamase producing Bacteroides uniformis assessed as susceptible isolates by CLSI agar dilution method; type: functional
[58] = test system: Clostridium paraputrificum; assay: Antibacterial activity against beta-lactamase producing Clostridium paraputrificum assessed as resistant isolates by CLSI agar dilution method; type: functional
Clostridium septicum [59] = assay: Antibacterial activity against beta-lactamase producing Clostridium septicum assessed as resistant isolates by CLSI agar dilution method; type: functional
[60] = test system: Clostridium paraputrificum; assay: Antibacterial activity against beta-lactamase producing Clostridium paraputrificum assessed as susceptible isolates by CLSI agar dilution method; type: functional

Compound: C[C@@H](O)[C@H]1C(=O)N2C(C(=O)O)=C(S[C@@H]3CN[C@H](CNS(N)(=O)=O)C3)[C@H](C)[C@H]12 [DORIPENEM]
- Activity (Fusobacterium nucleatum [1]): 100%
- Activity [2]: 100%
- Activity [3]: 100%
- MIC50 (Fusobacterium nucleatum [4]): 0.12 µg/mL (≈ 0.285 µM)
- MIC90 (Fusobacterium nucleatum [4]): 0.25 µg/mL (≈ 0.595 µM)
- MIC50 [5]: 0.06 µg/mL (≈ 0.143 µM)
- MIC90 [5]: 0.5 µg/mL (≈ 1.19 µM)
- MIC (Clostridium tertium [6]): 0.03 µg/mL (≈ 0.0713 µM)
- MIC50 (Clostridium tertium [6]): 0.03 µg/mL (≈ 0.0713 µM)
- MIC90 (Clostridium tertium [6]): 2 µg/mL (≈ 4.76 µM)
- Activity (Clostridium tertium [7]): 100%
- Activity [8]: 100%
- Activity (Prevotella buccae [9]): 0%
- MIC (Clostridium septicum [10]): 0.03 µg/mL (≈ 0.0713 µM)
- MIC50 (Clostridium septicum [10]): 0.03 µg/mL (≈ 0.0713 µM)
- MIC90 (Clostridium septicum [10]): 2 µg/mL (≈ 4.76 µM)
- Activity (Prevotella intermedia [11]): 100%
- MIC50 (Prevotella buccae [12]): 0.25 µg/mL (≈ 0.595 µM)
- MIC90 (Prevotella buccae [12]): 0.5 µg/mL (≈ 1.19 µM)
- Activity (Parvimonas micra [13]): 100%
- Activity [14]: 0%
- MIC50 (Finegoldia magna [15]): 0.06 µg/mL (≈ 0.143 µM)
- MIC90 (Finegoldia magna [15]): 0.5 µg/mL (≈ 1.19 µM)
- Activity (Phocaeicola vulgatus [16]): 92%
- MIC50 (Prevotella intermedia [17]): 0.25 µg/mL (≈ 0.595 µM)
- MIC90 (Prevotella intermedia [17]): 0.5 µg/mL (≈ 1.19 µM)
- Activity (Fusobacterium mortiferum [18]): 0%
- Activity [19]: 0%
- Activity [20]: 0%
- MIC50 (Prevotella bivia [21]): 0.25 µg/mL (≈ 0.595 µM)
- MIC90 (Prevotella bivia [21]): 0.5 µg/mL (≈ 1.19 µM)
- Activity (Bacteroides uniformis [22]): 4%
- MIC50 (Fusobacterium varium [23]): 0.12 µg/mL (≈ 0.285 µM)
- MIC90 (Fusobacterium varium [23]): 0.25 µg/mL (≈ 0.595 µM)
- Activity (Fusobacterium varium [24]): 0%
- Activity (Parvimonas micra [25]): 0%
- MIC50 (Bacteroides fragilis [26]): 0.5 µg/mL (≈ 1.19 µM)
- MIC90 (Bacteroides fragilis [26]): 8 µg/mL (≈ 19 µM)
- Activity (Phocaeicola vulgatus [27]): 4%
- Activity (Clostridium tertium [28]): 0%
- MIC50 (Fusobacterium mortiferum [29]): 0.12 µg/mL (≈ 0.285 µM)
- MIC90 (Fusobacterium mortiferum [29]): 0.25 µg/mL (≈ 0.595 µM)
- Activity (Bacteroides fragilis [30]): 7%
- MIC50 (Bacteroides caccae [31]): 1 µg/mL (≈ 2.38 µM)
- MIC90 (Bacteroides caccae [31]): 2 µg/mL (≈ 4.76 µM)
- Activity (Finegoldia magna [32]): 100%
- Activity [33]: 0%
- MIC (Veillonella parvula): 0.06 µg/mL (≈ 0.143 µM)
- Activity (Clostridium septicum [34]): 100%
- Activity [35]: 0%
- Activity (Bacteroides caccae [36]): 92%
- MIC (Clostridium perfringens): 0.03 µg/mL (≈ 0.0713 µM)
- MIC50 (Clostridium perfringens): 0.03 µg/mL (≈ 0.0713 µM)
- MIC90 (Clostridium perfringens): 2 µg/mL (≈ 4.76 µM)
- MIC50 (Phocaeicola vulgatus [37]): 1 µg/mL (≈ 2.38 µM)
- MIC90 (Phocaeicola vulgatus [37]): 2 µg/mL (≈ 4.76 µM)
- Activity [38]: 97%
- MIC50 [39]: 0.25 µg/mL (≈ 0.595 µM)
- MIC90 [39]: 0.5 µg/mL (≈ 1.19 µM)
- MIC50 [40]: 0.12 µg/mL (≈ 0.285 µM)
- MIC90 [40]: 0.25 µg/mL (≈ 0.595 µM)
- Activity (Finegoldia magna [41]): 0%
- Activity (Prevotella buccae [42]): 100%
- Activity (Fusobacterium varium [43]): 100%
- MIC50 (Bacteroides uniformis [44]): 1 µg/mL (≈ 2.38 µM)
- MIC90 (Bacteroides uniformis [44]): 2 µg/mL (≈ 4.76 µM)
- Activity (Fusobacterium mortiferum [45]): 100%
- MIC [46]: 0.03 µg/mL (≈ 0.0713 µM)
- MIC50 [46]: 0.03 µg/mL (≈ 0.0713 µM)
- MIC90 [46]: 2 µg/mL (≈ 4.76 µM)
- MIC50 [47]: 0.06 µg/mL (≈ 0.143 µM)
- MIC90 [47]: 0.5 µg/mL (≈ 1.19 µM)
- Activity (Bacteroides caccae [48]): 4%
- Activity (Prevotella intermedia [49]): 0%
- Activity (Prevotella bivia [50]): 100%
- MIC [51]: 0.5 µg/mL (≈ 1.19 µM)
- MIC50 [51]: 0.5 µg/mL (≈ 1.19 µM)
- MIC90 [51]: 2 µg/mL (≈ 4.76 µM)
- Activity [52]: 100%
- Activity (Bacteroides fragilis [53]): 88%
- Activity (Fusobacterium nucleatum [54]): 0%
- Activity (Prevotella bivia [55]): 0%
- MIC50 (Parvimonas micra [56]): 0.06 µg/mL (≈ 0.143 µM)
- MIC90 (Parvimonas micra [56]): 0.5 µg/mL (≈ 1.19 µM)
- Activity (Bacteroides uniformis [57]): 92%
- Activity [58]: 0%
- Activity (Clostridium septicum [59]): 0%
- Activity [60]: 100%
